Measured values as given in patent publication US9617577B2, “Bacillus pumilus bilirubin oxidase and applications thereof” (CENTRE NATIONAL DE LA RECHERCHE SCIENTIFIQUE, priority 2010, dated 2017).

How the values were obtained:
[1] = target: T1, Bacillus pumilus bilirubin oxidase (BOD), wild type, strain SAFR-032, SEQ ID No. 2 (C-terminal 6xHis tag) (Bacillus pumilus, UniProt A8FAG9); experiment: Steady-state kinetics of 2,6-dimethoxyphenol (DMP) oxidation by B. pumilus BOD; details: 37° C., 50 mM sodium phosphate buffer, pH 6.8
T1 sequence (A8FAG9 with tags, fused parts or gaps): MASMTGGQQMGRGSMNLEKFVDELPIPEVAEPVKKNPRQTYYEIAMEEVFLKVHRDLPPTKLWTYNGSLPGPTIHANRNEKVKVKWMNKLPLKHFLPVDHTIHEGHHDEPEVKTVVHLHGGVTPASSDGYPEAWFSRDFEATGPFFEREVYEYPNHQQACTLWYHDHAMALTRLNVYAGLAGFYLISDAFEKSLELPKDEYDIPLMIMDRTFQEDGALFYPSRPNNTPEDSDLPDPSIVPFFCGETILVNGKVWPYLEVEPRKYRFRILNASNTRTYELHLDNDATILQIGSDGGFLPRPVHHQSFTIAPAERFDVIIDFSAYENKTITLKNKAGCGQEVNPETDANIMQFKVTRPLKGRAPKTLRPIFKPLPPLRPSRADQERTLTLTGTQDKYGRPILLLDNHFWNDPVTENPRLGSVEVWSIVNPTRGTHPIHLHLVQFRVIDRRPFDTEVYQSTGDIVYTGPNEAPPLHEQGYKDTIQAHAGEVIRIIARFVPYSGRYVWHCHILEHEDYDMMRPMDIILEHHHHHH
Experimental: (§3) The experiments are carried out at 37° C. on a Varian spectrophotometer in a 50 mM sodium phosphate buffer, pH 6.8. The 2,6-dimethoxyphenol concentration varies in the test from 0 to 4000 μM. The test, triggered by adding the enzyme, consists in following the oxidation of the DMP at 468 nm by coloroimetric change (ε468nm=14.8 mM^−1 cm^−1).

[2] = target: T1, Bacillus pumilus bilirubin oxidase (BOD), wild type, strain SAFR-032, SEQ ID No. 2 (C-terminal 6xHis tag); experiment: Activity (SGZ oxidation) as a function of the presence of DTT or of EDTA; assay type: biochemical; details: 50 μM SGZ, 37° C., pH 6.2, read-out: Relative activity
Experimental: (§1) The concentration of SGZ, diluted in methanol, is fixed in the test at 50 μM. […] Table III below collates the results obtained, presented in relative activity form.

Bacillus pumilus BOD [3] = experiment: Activity as a function of the presence of DTT or EDTA (SGZ oxidation); assay type: biochemical; details: SGZ 50 μM, 37° C., pH 6.2
Experimental: as §1

[4] = target: T1, Bacillus pumilus bilirubin oxidase (BOD), wild type, strain SAFR-032, SEQ ID No. 2 (C-terminal 6xHis tag); experiment: Steady-state kinetics of syringaldazine (SGZ) oxidation by B. pumilus BOD; assay type: biochemical; details: 37° C., 50 mM citrate/phosphate buffer, pH 6.2; model with competitive inhibition; in 1/s
Experimental: (§2) The SGZ concentration, diluted in methanol, varies in the test from 0 to 300 μM.

Bacillus pumilus BOD [5] = experiment: Activity as a function of the presence of urea (ABTS oxidation); details: urea 0 to 6 M, 100 mM citrate/phosphate buffer, pH 3
Experimental: The experiments are carried out at 37° C. on a Varian spectrophotometer in a 0.1 M citrate/phosphate buffer, pH 3. […] The test is triggered by adding enzyme.

[6] = target: T1, Bacillus pumilus bilirubin oxidase (BOD), wild type, strain SAFR-032, SEQ ID No. 2 (C-terminal 6xHis tag); experiment: Steady-state kinetics of conjugated bilirubin oxidation by B. pumilus BOD; assay type: biochemical; details: 37° C., 50 mM sodium phosphate buffer, pH 4.8
[7] = substrate: C=CC1=C(C)/C(=C/c2[nH]c(Cc3[nH]c(/C=C4\NC(=O)C(C)=C4C=C)c(C)c3CCC(=O)O)c(CCC(=O)O)c2C)NC1=O; experiment: Steady-state kinetics of unconjugated bilirubin oxidation by B. pumilus BOD; assay type: biochemical, Bacillus pumilus; details: other: 37° C., 50 mM sodium phosphate buffer, pH 7
[8] = substrate: COc1cc(/C=N/N=C/c2cc(OC)c(O)c(OC)c2)cc(OC)c1O; experiment: Steady-state kinetics of syringaldazine (SGZ) oxidation by B. pumilus BOD; assay type: biochemical, Bacillus pumilus; details: other: 37° C., 50 mM citrate/phosphate buffer, pH 6.2, model with competitive inhibition
Experimental: as §2

[9] = substrate: COc1cccc(OC)c1O; experiment: purified protein, by the assay type; details: other: 37° C., 50 mM sodium phosphate buffer, pH 6.8
Experimental: as §3

[10] = Specific activity for ABTS; assay type: biochemical; details: BOD according to the invention
Experimental: The enzyme is diluted so as to measure a slope between 0.05 and 0.3 OD420nm/min.

[11] = Remazol Brilliant Blue R (RBBR) discoloration activity; assay type: biochemical; details: RBBR 80 mg.l^−1, 37° C., 50 mM potassium phosphate buffer, pH 6, absence or presence of 10 μM ABTS
Experimental: The RBBR concentration is fixed at 80 mg.l^−1 in each tank. The test, triggered by adding 10 μg of enzyme, consists in following, over time, the discoloration of the RBBR dye at 593 nm.

[12] = Stability of the enzyme as a function of temperature; assay type: physicochemical; details: incubation at 80° C., residual activity on ABTS
Experimental: The enzyme is preincubated at a concentration of 10 mg/ml in a dry bath at 80° C. […] The test is triggered by adding enzyme.

Molecule: COc1cccc(OC)c1O [DMP, 2,6-Dimethoxyphenol]
- kss [1]: 57.3 s⁻¹

Molecule: OC(CS)C(O)CS (centres unmarked) [DTT]
- activity at 1 µM ([2]; DTT 0.001 mM): 99 ± 4%
- activity at 5 µM ([2]; DTT 0.005 mM): 93 ± 2%
- activity at 10 µM ([2]; DTT 0.01 mM): 93 ± 4%
- activity at 15 µM ([2]; DTT 0.015 mM): 94 ± 3%
- activity at 30 µM ([2]; DTT 0.03 mM): 85 ± 1%
- activity at 50 µM ([2]; DTT 0.05 mM): 81 ± 4%

Molecule: O[C@@H](CS)[C@@H](O)CS [DTT]
- Relative activity (%) (Bacillus pumilus BOD [3]; DTT 0.001 mM): 99 ± 4%
- Relative activity (%) (Bacillus pumilus BOD [3]; DTT 0.005 mM): 93 ± 2%
- Relative activity (%) (Bacillus pumilus BOD [3]; DTT 0.01 mM): 93 ± 4%
- Relative activity (%) (Bacillus pumilus BOD [3]; DTT 0.015 mM): 94 ± 3%
- Relative activity (%) (Bacillus pumilus BOD [3]; DTT 0.03 mM): 85 ± 1%
- Relative activity (%) (Bacillus pumilus BOD [3]; DTT 0.05 mM): 81 ± 4%

Molecule: O=C(O)CN(CCN(CC(=O)O)CC(=O)O)CC(=O)O [EDTA]
- activity at 100 µM ([2]; EDTA 0.1 mM): 97 ± 1%
- activity at 1000 µM ([2]; EDTA 1 mM): 99 ± 5%
- activity at 10000 µM ([2]; EDTA 10 mM): 95 ± 1%
- activity at 25000 µM ([2]; EDTA 25 mM): 98 ± 3%
- activity at 50000 µM ([2]; EDTA 50 mM): 99 ± 4%
- activity at 75000 µM ([2]; EDTA 75 mM): 95 ± 2%
- activity at 100000 µM ([2]; EDTA 100 mM): 95 ± 1%
- activity at 125000 µM ([2]; EDTA 125 mM): 89 ± 3%
- Relative activity (%) (Bacillus pumilus BOD [3]; EDTA 0.1 mM): 97 ± 1%
- Relative activity (%) (Bacillus pumilus BOD [3]; EDTA 1 mM): 99 ± 5%
- Relative activity (%) (Bacillus pumilus BOD [3]; EDTA 10 mM): 95 ± 1%
- Relative activity (%) (Bacillus pumilus BOD [3]; EDTA 25 mM): 98 ± 3%
- Relative activity (%) (Bacillus pumilus BOD [3]; EDTA 50 mM): 99 ± 4%
- Relative activity (%) (Bacillus pumilus BOD [3]; EDTA 75 mM): 95 ± 2%
- Relative activity (%) (Bacillus pumilus BOD [3]; EDTA 100 mM): 95 ± 1%
- Relative activity (%) (Bacillus pumilus BOD [3]; EDTA 125 mM): 89 ± 3%

Molecule: COc1cc(/C=N/N=C/c2cc(OC)c(O)c(OC)c2)cc(OC)c1O [SGZ, Syringaldazine]
- kcat [4]: 116.1

Molecule: NC(N)=O [urea]
- effect of urea on BOD activity (ABTS oxidation) (Bacillus pumilus BOD [5]; 25° C.): activating effect
- effect of urea on BOD activity (ABTS oxidation) (Bacillus pumilus BOD [5]; 37° C.): not found

Molecule: conjugated bilirubin
- Km [6]: 35.1 µM
- kcat [6]: 66.8 s⁻¹

B1: Bacillus pumilus bilirubin oxidase (BOD), wild type, strain SAFR-032, SEQ ID No. 2 (C-terminal 6xHis tag) (Bacillus pumilus SAFR-032) (protein)
chain: MASMTGGQQMGRGSMNLEKFVDELPIPEVAEPVKKNPRQTYYEIAMEEVFLKVHRDLPPTKLWTYNGSLPGPTIHANRNEKVKVKWMNKLPLKHFLPVDHTIHEGHHDEPEVKTVVHLHGGVTPASSDGYPEAWFSRDFEATGPFFEREVYEYPNHQQACTLWYHDHAMALTRLNVYAGLAGFYLISDAFEKSLELPKDEYDIPLMIMDRTFQEDGALFYPSRPNNTPEDSDLPDPSIVPFFCGETILVNGKVWPYLEVEPRKYRFRILNASNTRTYELHLDNDATILQIGSDGGFLPRPVHHQSFTIAPAERFDVIIDFSAYENKTITLKNKAGCGQEVNPETDANIMQFKVTRPLKGRAPKTLRPIFKPLPPLRPSRADQERTLTLTGTQDKYGRPILLLDNHFWNDPVTENPRLGSVEVWSIVNPTRGTHPIHLHLVQFRVIDRRPFDTEVYQSTGDIVYTGPNEAPPLHEQGYKDTIQAHAGEVIRIIARFVPYSGRYVWHCHILEHEDYDMMRPMDIILEHHHHHH
- Km [7]: 22 µM
- kcat [7]: 70 s⁻¹
- Km [8]: 45.6 µM
- Km [9]: 822 µM

B2: Bacillus pumilus BOD: wild-type bilirubin oxidase of Bacillus pumilus strain SAFR032, SEQ ID No. 2, produced in E. coli with C-terminal 6HIS tag (protein, listed as Bacillus pumilus)
chain: MASMTGGQQMGRGSMNLEKFVDELPIPEVAEPVKKNPRQTYYEIAMEEVFLKVHRDLPPTKLWTYNGSLPGPTIHANRNEKVKVKWMNKLPLKHFLPVDHTIHEGHHDEPEVKTVVHLHGGVTPASSDGYPEAWFSRDFEATGPFFEREVYEYPNHQQACTLWYHDHAMALTRLNVYAGLAGFYLISDAFEKSLELPKDEYDIPLMIMDRTFQEDGALFYPSRPNNTPEDSDLPDPSIVPFFCGETILVNGKVWPYLEVEPRKYRFRILNASNTRTYELHLDNDATILQIGSDGGFLPRPVHHQSFTIAPAERFDVIIDFSAYENKTITLKNKAGCGQEVNPETDANIMQFKVTRPLKGRAPKTLRPIFKPLPPLRPSRADQERTLTLTGTQDKYGRPILLLDNHFWNDPVTENPRLGSVEVWSIVNPTRGTHPIHLHLVQFRVIDRRPFDTEVYQSTGDIVYTGPNEAPPLHEQGYKDTIQAHAGEVIRIIARFVPYSGRYVWHCHILEHEDYDMMRPMDIILEHHHHHH
modifications: C-terminal 6His tag
- specific activity for ABTS [10]: 375 U/mg
- discolouring activity on dyes used in the textile industry [11]: discolouring activity
- heat stability [12]: very good heat stability
